Laboratory results taken from ChEMBL document CHEMBL1136598, “Design, synthesis, and structure-activity relationships of unsubstituted piperazinone-based transition state factor Xa inhibitors” (Bioorg Med Chem Lett, 2003).
Values belong to the compound of their own block, whether it stands above or below them. Active and inactive are the calls of the source. The calls are words filed in the database; no cut-off is given here.

Assays:
Coagulation factor X [1] = target: T1, Coagulation factor X (Homo sapiens, UniProt P00742); assay: In vitro inhibitory activity against factor Xa
T1 sequence (P00742 41-179 limits assumed): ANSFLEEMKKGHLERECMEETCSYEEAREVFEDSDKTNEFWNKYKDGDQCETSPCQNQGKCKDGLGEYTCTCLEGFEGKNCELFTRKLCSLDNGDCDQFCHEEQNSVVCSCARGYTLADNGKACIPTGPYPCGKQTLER
T1 sequence (P00742 235-488 limits assumed): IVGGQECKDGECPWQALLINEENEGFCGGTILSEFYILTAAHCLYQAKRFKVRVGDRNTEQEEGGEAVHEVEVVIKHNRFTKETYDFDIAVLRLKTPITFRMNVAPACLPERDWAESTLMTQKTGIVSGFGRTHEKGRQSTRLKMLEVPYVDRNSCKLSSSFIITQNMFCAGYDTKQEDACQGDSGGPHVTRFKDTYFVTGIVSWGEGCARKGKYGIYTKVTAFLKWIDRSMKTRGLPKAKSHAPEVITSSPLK

Prothrombin = Prothrombin (Homo sapiens, UniProt P00734); assay: In vitro inhibitory activity against serine protease thrombin
Coagulation factor X [2] = target: T1, Coagulation factor X; assay: In vitro binding affinity towards factor Xa; Not active
[3] = Inhibitory activity against Kallikrein
[4] = In vitro anticoagulant activity was measured by activated partial thromboplastin time (APTT) assay; format: functional
[5] = In vitro anticoagulant activity was measured by prothrombin time (PT) assay; format: functional
[6] = In vitro anticoagulant activity was measured by plasma based on thrombin generation (TG) assay; format: functional
Oryctolagus cuniculus [7] = species: Oryctolagus cuniculus; assay: Plasma concentration required to inhibit thrombosis formation in rabbit; format: functional, organism-based
Oryctolagus cuniculus [8] = species: Oryctolagus cuniculus; assay: Inhibition thrombosis formation in rabbit; format: functional
[9] = In vivo half life period after intravenous administration in rat; format: ADME, organism-based
[10] = target: Vitamin K-dependent protein C (Homo sapiens, UniProt P04070); assay: Inhibitory activity against activated protein C (aPC)
Chain of Vitamin K-dependent protein C (P04070 43-197 limits assumed): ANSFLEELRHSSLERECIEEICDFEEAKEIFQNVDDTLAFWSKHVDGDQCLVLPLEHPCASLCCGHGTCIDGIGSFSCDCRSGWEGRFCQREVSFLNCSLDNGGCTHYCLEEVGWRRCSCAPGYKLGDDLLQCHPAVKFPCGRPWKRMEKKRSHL
Chain of Vitamin K-dependent protein C (P04070 212-461 limits assumed): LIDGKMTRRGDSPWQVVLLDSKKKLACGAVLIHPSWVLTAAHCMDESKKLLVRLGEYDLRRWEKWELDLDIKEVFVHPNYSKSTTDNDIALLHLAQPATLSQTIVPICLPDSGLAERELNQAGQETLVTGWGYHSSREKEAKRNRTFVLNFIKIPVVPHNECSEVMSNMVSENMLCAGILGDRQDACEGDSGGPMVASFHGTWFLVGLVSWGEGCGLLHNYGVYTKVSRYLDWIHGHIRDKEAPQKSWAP

Coagulation factor X [11] = target: T1, Coagulation factor X; assay: (§1) In vitro binding affinity towards factor Xa
Coagulation factor X [12] = target: T1, Coagulation factor X; assay: as §1; remark: listed apart in the source
Plasminogen = Plasminogen (Homo sapiens, UniProt P00747); assay: Inhibitory activity against Plasmin
Chain of Plasminogen (P00747 97-580 limits assumed): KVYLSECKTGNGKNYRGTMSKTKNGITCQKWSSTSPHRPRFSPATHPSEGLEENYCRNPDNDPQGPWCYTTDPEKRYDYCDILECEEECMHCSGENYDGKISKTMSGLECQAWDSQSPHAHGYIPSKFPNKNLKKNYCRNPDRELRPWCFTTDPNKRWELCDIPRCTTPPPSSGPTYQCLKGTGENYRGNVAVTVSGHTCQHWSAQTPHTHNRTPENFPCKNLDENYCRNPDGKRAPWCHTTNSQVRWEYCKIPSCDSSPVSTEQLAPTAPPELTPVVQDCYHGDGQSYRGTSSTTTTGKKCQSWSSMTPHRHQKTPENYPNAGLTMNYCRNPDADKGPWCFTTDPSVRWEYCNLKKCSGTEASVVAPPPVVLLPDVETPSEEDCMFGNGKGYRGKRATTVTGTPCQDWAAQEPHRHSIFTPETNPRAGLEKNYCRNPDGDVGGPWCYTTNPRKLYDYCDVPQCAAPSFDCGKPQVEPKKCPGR
Chain of Plasminogen (P00747 581-810 limits assumed): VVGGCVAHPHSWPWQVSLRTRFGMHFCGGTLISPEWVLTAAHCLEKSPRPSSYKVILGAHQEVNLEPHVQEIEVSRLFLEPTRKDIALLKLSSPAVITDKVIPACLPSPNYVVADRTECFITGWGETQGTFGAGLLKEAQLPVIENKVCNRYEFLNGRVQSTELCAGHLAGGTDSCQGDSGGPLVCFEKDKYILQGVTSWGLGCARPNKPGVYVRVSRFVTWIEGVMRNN

[13] = In vitro anticoagulant activity was measured by plasma based thrombin generation (TG) assay; format: functional
Oryctolagus cuniculus [14] = assay: In vivo plasma concentration required to inhibit thrombosis formation in rabbit; format: functional, organism-based
Oryctolagus cuniculus [15] = assay: In vivo inhibition of thrombosis formation in rabbit; format: functional
[16] = target: Tissue-type plasminogen activator (Homo sapiens, UniProt P00750); assay: Inhibitory activity against tissue plasminogen activator (tissue plasminogen activator)
Chain of Tissue-type plasminogen activator (P00750 whole entry): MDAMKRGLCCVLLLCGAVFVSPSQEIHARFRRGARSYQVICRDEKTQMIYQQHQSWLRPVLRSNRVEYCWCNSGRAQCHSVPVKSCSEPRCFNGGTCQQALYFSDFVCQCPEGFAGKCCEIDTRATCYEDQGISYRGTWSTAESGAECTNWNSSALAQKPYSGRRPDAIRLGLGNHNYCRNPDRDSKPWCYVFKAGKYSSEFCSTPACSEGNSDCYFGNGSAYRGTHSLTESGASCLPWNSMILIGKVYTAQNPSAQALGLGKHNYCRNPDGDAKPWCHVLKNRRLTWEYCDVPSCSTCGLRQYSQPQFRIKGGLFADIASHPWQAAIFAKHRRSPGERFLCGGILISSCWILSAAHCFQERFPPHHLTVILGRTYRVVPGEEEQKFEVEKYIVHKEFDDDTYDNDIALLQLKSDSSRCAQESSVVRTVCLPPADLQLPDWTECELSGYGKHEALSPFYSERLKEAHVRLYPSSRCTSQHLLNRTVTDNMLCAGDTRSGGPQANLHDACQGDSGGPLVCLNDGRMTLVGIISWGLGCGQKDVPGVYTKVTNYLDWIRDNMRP

Serine protease 1 = Serine protease 1 (Homo sapiens, UniProt P07477); assay: Inhibitory activity against Trypsin
Chain of Serine protease 1 (P07477 whole entry): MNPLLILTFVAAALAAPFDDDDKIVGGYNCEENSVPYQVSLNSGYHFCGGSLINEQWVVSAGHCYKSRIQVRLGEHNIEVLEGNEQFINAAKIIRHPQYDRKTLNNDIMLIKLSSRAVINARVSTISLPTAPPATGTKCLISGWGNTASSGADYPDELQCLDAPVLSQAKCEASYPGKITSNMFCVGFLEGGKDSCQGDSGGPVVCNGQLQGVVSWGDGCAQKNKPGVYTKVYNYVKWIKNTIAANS

Oryctolagus cuniculus [17] = assay: In vivo inhibition thrombosis formation in rabbit; format: functional
[18] = Half life period after intravenous administration in rat; format: ADME, organism-based; settings: in vivo

SMILES: N=C(N)NCCC[C@@H](NC(=O)CN1CCCC(CCC2CCNCC2)C1=O)C(=O)c1nccs1 (stereo partly drawn)
IC50 (Coagulation factor X [1]): 65 nM
IC50 (Prothrombin): 12000 nM

SMILES: N=C(N)NCCC[C@@H](NC(=O)CN1CCNCC1=O)C(=O)c1nccs1
IC50 (Coagulation factor X [1]): 2000 nM
IC50 (Prothrombin): 220000 nM

SMILES: N=C(N)NCCCC(NC(=O)CN1CCN(S(=O)(=O)c2ccc(F)cc2)CC1=O)C(=O)c1nccs1 (stereo not drawn)
IC50 (Coagulation factor X [1]): 2 nM
IC50 (Prothrombin): 751 nM

SMILES: CC(=O)Nc1ccc(S(=O)(=O)N2CCN(CC(=O)NC(CCCNC(=N)N)C(=O)c3nccs3)C(=O)C2)cc1 (stereo not drawn)
IC50 (Coagulation factor X [1]): 116 nM
IC50 (Prothrombin): 5000 nM

SMILES: N=C(N)NCCC[C@@H](NC(=O)Cn1cccc(NS(=O)(=O)Cc2ccccc2)c1=O)C(=O)c1nccs1
IC50 (Prothrombin): 8 nM

SMILES: Cc1c(S(=O)(=O)N2CCN(CC(=O)NC(CCCN=C(N)N)C(=O)c3nccs3)C(=O)C2)sc2ccc(Cl)cc12 (stereo not drawn)
k_off (Coagulation factor X [2]): inactive
k_on (Coagulation factor X [2]): inactive
IC50 [3]: 9.4 nM
2x APTT [4]: 15.5 µM
2x PT [5]: 14.5 µM
2x TG [6]: 5.46 µM
Plasma concentration (Oryctolagus cuniculus [7]): 1.6 µM
Inhibition (Oryctolagus cuniculus [8]): 0%

SMILES: N=C(N)NCCCC(NC(=O)CN1CCN(S(=O)(=O)c2cccc3cnccc23)CC1=O)C(=O)c1nccs1 (stereo not drawn)
IC50 (Coagulation factor X [1]): 1 nM
IC50 (Prothrombin): 267 nM

SMILES: Cc1nsc(C)c1S(=O)(=O)N1CCN(CC(=O)NC(CCCNC(=N)N)C(=O)c2nccs2)C(=O)C1 (stereo not drawn)
IC50 (Coagulation factor X [1]): 69 nM
IC50 (Prothrombin): 669 nM

SMILES: N=C(N)NCCCC(NC(=O)CN1CCN(S(=O)(=O)c2ccc(C(F)(F)F)cc2)CC1=O)C(=O)c1nccs1 (stereo not drawn)
IC50 (Coagulation factor X [1]): 10 nM
IC50 (Prothrombin): 6000 nM

SMILES: N=C(N)NCCCC(NC(=O)CN1CCN(S(=O)(=O)c2ccc([N+](=O)[O-])cc2)CC1=O)C(=O)c1nccs1 (stereo not drawn)
IC50 (Coagulation factor X [1]): 6 nM
IC50 (Prothrombin): 3000 nM

SMILES: N=C(N)NCCCC(NC(=O)CN1CCN(S(=O)(=O)c2cccc3c(Cl)cccc23)CC1=O)C(=O)c1nccs1 (stereo not drawn)
IC50 (Coagulation factor X [1]): 0.62 nM
IC50 (Prothrombin): 185 nM

SMILES: N=C(N)NCCCC(NC(=O)CN1CCN(S(=O)(=O)c2cccc3nonc23)CC1=O)C(=O)c1nccs1 (stereo not drawn)
IC50 (Coagulation factor X [1]): 2 nM
IC50 (Prothrombin): 719 nM

SMILES: N=C(N)NCCCC(NC(=O)CN1CCN(S(=O)(=O)c2ccc3c(Cl)cccc3c2)CC1=O)C(=O)c1nccs1 (stereo not drawn)
half-life [18]: 51 min
IC50 [10]: 170000 nM
k_off (Coagulation factor X [2]): inactive
k_on (Coagulation factor X [2]): inactive
Ki (Coagulation factor X [12]): 1.3 nM
IC50 (Coagulation factor X [1]): 0.79 nM
IC50 [3]: 34 nM
IC50 (Plasminogen): 1880 nM
2x APTT [4]: 12.5 µM
2x PT [5]: 12.5 µM
2x TG [6]: inactive
Plasma concentration (Oryctolagus cuniculus [7]): 0.2 µM
Inhibition (Oryctolagus cuniculus [8]): 0%
IC50 [16]: 740 nM
IC50 (Serine protease 1): 20.5 nM
IC50 (Prothrombin): 2000 nM

More lines, main results first:

IC50 (Coagulation factor X [1]): 4 nM
IC50 (Prothrombin): 4000 nM
SMILES: N=C(N)NCCCC(NC(=O)CN1CCN(S(=O)(=O)c2ccc(-c3ccccn3)s2)CC1=O)C(=O)c1nccs1 (stereo not drawn)

IC50 (Coagulation factor X [1]): 5 nM
IC50 (Prothrombin): 2000 nM
SMILES: N=C(N)NCCC[C@@H](NC(=O)CN1CCN(S(=O)(=O)Cc2ccccc2)CCC1=O)C(=O)c1nccs1

IC50 (Coagulation factor X [1]): 0.7 nM
IC50 (Prothrombin): 809 nM
SMILES: N=C(N)NCCCC(NC(=O)CN1CCN(S(=O)(=O)c2ccc(Br)cc2)CC1=O)C(=O)c1nccs1 (stereo not drawn)

IC50 (Coagulation factor X [1]): 118 nM
IC50 (Prothrombin): 5000 nM
SMILES: N=C(N)NCCC[C@@H](NC(=O)CN1CCN(C(=O)c2ccc(Cl)cc2)CC1=O)C(=O)c1nccs1

IC50 (Coagulation factor X [1]): 771 nM
IC50 (Prothrombin): 14000 nM
SMILES: N=C(N)NCCC[C@@H](NC(=O)CN1CCN(Cc2ccccc2)CC1=O)C(=O)c1nccs1

half-life [9]: 10 min
IC50 [10]: > 180000 nM
k off (Coagulation factor X [11]): 0.013 s⁻¹
k on (Coagulation factor X [11]): 2.3e+06 M⁻¹ s⁻¹
Ki (Coagulation factor X [12]): 1.4 nM
IC50 (Coagulation factor X [1]): 4 nM
IC50 [3]: 677 nM
IC50 (Plasminogen): 12100 nM
IC50 [16]: 4010 nM
IC50 (Serine protease 1): 33 nM
IC50 (Prothrombin): 390 nM
SMILES: N=C(N)NCCC[C@@H](NC(=O)CN1CCN(S(=O)(=O)Cc2ccccc2)CC1=O)C(=O)c1nccs1
2x APTT [4]: 2.8 µM
2x PT [5]: 11.7 µM
2x TG [13]: inactive
Plasma concentration (Oryctolagus cuniculus [14]): 0.4 µM
Inhibition (Oryctolagus cuniculus [15]): 35%

half-life [9]: 15 min
IC50 [10]: > 180000 nM
k off (Coagulation factor X [11]): 0.132 s⁻¹
k on (Coagulation factor X [11]): 6.3e+06 M⁻¹ s⁻¹
Ki (Coagulation factor X [12]): 2.7 nM
IC50 (Coagulation factor X [1]): 8 nM
IC50 [3]: 390 nM
IC50 (Plasminogen): 6960 nM
IC50 [16]: 1850 nM
IC50 (Serine protease 1): 39.1 nM
IC50 (Prothrombin): 6000 nM
SMILES: N=C(N)NCCCC(NC(=O)CN1CCN(S(=O)(=O)c2ccc3ccccc3c2)CC1=O)C(=O)c1nccs1 (stereo not drawn)
2x APTT [4]: 13.5 µM
2x PT [5]: 14.5 µM
2x TG [6]: inactive
Plasma concentration (Oryctolagus cuniculus [14]): 0.8 µM
Inhibition (Oryctolagus cuniculus [17]): 0%

IC50 (Coagulation factor X [1]): 5 nM
IC50 (Prothrombin): 134 nM
SMILES: N=C(N)NCCCC(NC(=O)CN1CCN(S(=O)(=O)c2cccc(Cl)c2)CC1=O)C(=O)c1nccs1 (stereo not drawn)

IC50 (Coagulation factor X [1]): 6 nM
IC50 (Prothrombin): 5000 nM
SMILES: N=C(N)NCCCC(NC(=O)CN1CCN(S(=O)(=O)c2ccc(N)cc2)CC1=O)C(=O)c1nccs1 (stereo not drawn)

IC50 (Coagulation factor X [1]): 320 nM
IC50 (Prothrombin): 7000 nM
SMILES: N=C(N)NCCC[C@@H](NC(=O)CN1CCN(C(=O)c2ccccc2)CC1=O)C(=O)c1nccs1
